The record followed here is patent US9750253B2, “Pesticidally active substituted pyridyl carboxamides” (Syngenta Participations AG, priority 2013, dated 2017).

Format in all cases: in vivo
The test system of one series is Bemisia tabaci. As to the kind of experiment: whole plant or invertebrate. The note with it: foliar, 168 h, cotton leaf discs sprayed, adult white flies, 7 DAT. The protocol: Example B3: Activity Against Bemisia tabaci, (Adults on Cotton, Contact, Preventative)
Cotton leaf discs are placed on agar in a 24-well microtiter plate and sprayed with test solutions. After drying, the leaf discs are infested with adult white flies. After an incubation period of 7 DAT, samples are checked for mortality and special effects (e.g. phytotoxicity).

For series [1], the system named is Myzus persicae (Green Peach Aphid). Nature of the series: whole plant or invertebrate. The note with it: 144 h, pea seedlings, roots in test solution, 6 days after introduction. The text has this:
Example B2: Activity Against Myzus persicae (Green Peach Aphid) (Mixed Population, Systemic/Feeding Activity, Curative)
Pea seedlings, infested with an aphid population of mixed ages, were placed with the roots directly in the test solutions. 6 days after introduction, samples were checked for mortality and special effects on the plant.

Series [2] has the same test system. As to the kind of experiment: whole plant or invertebrate. The note with it: foliar, 144 h, sunflower leaf discs sprayed, 6 days incubation. The protocol:
Example B1: Activity Against Myzus persicae (Green Peach Aphid) (Mixed Population, Feeding/Residual Contact Activity, Preventive)
Sunflower leaf discs were placed on agar in a 24-well microtiter plate and sprayed with test solutions. After drying, the leaf discs were infested with an aphid population of mixed ages. After an incubation period of 6 days, samples were checked for mortality and special effects (e.g. phytotoxicity).

For series [3], the system named is Rhopalosiphum padi (Bird Cherry Oat Aphid). As to the kind of experiment: Activity against Rhopalosiphum padi, barley, seed treatment, mixed population, systemic/feeding activity, preventive. The protocol:
Example B5: Activity Against Rhopalosiphum padi (Bird Cherry Oat Aphid, Barley) (Seed Treatment) Mixed Population, Systemic/Feeding Activity, Preventive
The barley seeds were coated with the active ingredients as described in the formulation example F9 above.
A treated barley seed was sown in a 350 ml pot filled with soil. Two weeks after sowing the barley seedling was infested with an aphid population of mixed stages. After an incubation period of seven days the grade of efficacy was estimated and expressed in percentage.
Activity against Rhopalosiphum padi (Bird Cherry Oat Aphid, barley) (seed treatment) mixed population, systemic/feeding activity, preventive: […]

Broadly, the mortality is the percentage killed. A low value points to a weak lethal effect.

Turning to `Cc1cccnc1-n1ncc(C(=O)N(C)c2cccnc2)c1C` [Compound 1.001, 1-(3-methylpyridin-2-yl)-5-methyl-1H-pyrazole-4-carboxylic acid methyl-pyridin-3-yl-amide], the mortality at 200 ppm is greater than 80% in the series with Bemisia tabaci and no less than 80% in series [2]. Moreover, the mortality at 24 ppm in series [1] was greater than 80%. Moreover, the “Mortality (%)” value amounted to 70% in series [3] (0.01 mg ai/seed); 85% in series [3] (0.03 mg ai/seed); 95% in series [3] (0.1 mg ai/seed); 99% in series [3] (0.3 mg ai/seed); 99% in series [3] (1 mg ai/seed).
For the compound `Cc1cc(Br)cnc1-n1ncc(C(=O)N(C)c2cccnc2)c1C` [Compound 1.003, 1-(5-bromo-3-methyl-2-pyridyl)-N,5-dimethyl-N-(3-pyridyl)pyrazole-4-carboxamide], in series [2], the mortality at 200 ppm was no less than 80%.
Compound `Cc1cc(C#N)cnc1-n1ncc(C(=O)N(C)c2cccnc2)c1C` [Compound 1.004, 1-(5-cyano-3-methyl-2-pyridyl)-N,5-dimethyl-N-(3-pyridyl)pyrazole-4-carboxamide] came in with a mortality at 24 ppm in series [1] greater than 80%. The compound further came in with a mortality at 200 ppm in series [2] of no less than 80%.
For `CCc1cccnc1-n1ncc(C(=O)N(C)c2cccnc2)c1C` [Compound 1.025, 1-(3-ethyl-2-pyridyl)-N,5-dimethyl-N-(3-pyridyl)pyrazole-4-carboxamide], the mortality at 200 ppm in series [2] is no less than 80%.
`Cc1cccnc1-n1ncc(C(=O)N(C)c2ccc[n+]([O-])c2)c1C` [Compound 1.079, 1-(3-methylpyridin-2-yl)-5-methyl-1H-pyrazole-4-carboxylic acid methyl-pyridin-N-oxide-3-yl-amide] displayed a mortality at 24 ppm in series [1] greater than 80%. Moreover, the mortality at 200 ppm in series [2] is no less than 80%.
On to `Cc1ccc(Cl)nc1-n1ncc(C(=O)N(C)c2ccnnc2)c1C` [Compound 1.230, 1-(6-chloro-3-methyl-2-pyridyl)-N,5-dimethyl-N-pyridazin-4-yl-pyrazole-4-carboxamide], for which the mortality at 200 ppm in the series on Bemisia tabaci is greater than 80%; in series [2] it was no less than 80%.
With `Cc1c(C(=O)N(C)c2cccnc2)cnn1-c1ncccc1Cl` [Compound 877, reference compound], the “Mortality (%)” value was 0% in series [3] (0.01 mg ai/seed); 0% in series [3] (0.03 mg ai/seed); 42% in series [3] (0.1 mg ai/seed); 63% in series [3] (0.3 mg ai/seed); 84% in series [3] (1 mg ai/seed).
